Read-outs that look alike come from different tables or passages of the source.
What was measured:
HepG2 cells [1] = experiment: Survival (MTT) cytotoxicity assay in HepG2 cells under normoxic or hypoxic conditions; format: cell-based; details: for IC50: Homo sapiens, MTT assay; for toxicity in hypoxic versus normoxic exposure: transient exposure to hypoxic conditions
Protocol: Cell Culture and Cytotoxicity Assays. HepG2 cells (passage 2 from frozen stock) were cultured in RPMI 1640 containing 10% FBS. The tests were performed in 96-well plates with stock cells split equally into duplicate plates—one for normoxic and the other for hypoxic conditions. The drug(s) or vehicle (0.1% DMSO) was applied to the cells in log-exponential growth phase under normoxic conditions (5% CO2; 37 C) for 48 hours or under normoxic conditions (22 hr) followed by 2 hr hypoxic conditions (1% O2, 5% CO2, 94% N2 at 37° C.) then followed by reoxygenation for 24 hrs. For the hypoxia experiments, a glove chamber with two-way pressure value and one-way N2 inflow was used. Hypoxia conditions were met using methylene blue dye indicator (i.e. 0.015% methylene blue, 6% dextrose, 6 mM NaOH) which correlated with the O2 pressure in the glove box when measured continuously with a Clark-type electrode.^13
At 48 hrs, a tetrazolium component (MTT) assay (Promega, Madison, Wis.; Cell Titer 96 Non-Radioactive Cell Proliferation Assay) was performed following an established protocol in the laboratory. Since these assays depend on mitochondrial function, which may be affected by the state of oxygenation, clonogenic assays to verify survival function were also performed. It is important to note that the data presented for the MTT assay normalizes the OD595 for the drug treated wells (minus background) to its own vehicle treated well(s) under either normoxic or hypoxic conditions. These values are then plotted as a percentage (×100%) surviving 48 hrs of drug(s) or vehicle treatment under the said condition. These analyses have also been performed previously for other hypoxia studies.^14,15

HepG2 cells [2] = experiment: HepG2 clonogenic assay (colony count) under normoxic or hypoxic conditions; format: cell-based; details: for cells dead / colonies dead: hypoxic conditions; for cells dead / cells dead compared with controls: 50 μM; for cells dead: p<0.00001 vs control treated hypoxic conditions; for colonies dead / colonies alive relative to controls: ~10 μM; for colonies dead: p<0.001 vs control treated cells; for cells dead compared with controls / colonies alive relative to controls: normoxic cells; for colonies alive relative to controls: FIG. 5
Protocol: In the HepG2 clonogenic assays, 3.5×10^3 per well were seeded in 6-well plates using RPMI1640 and 10% FBS. After 24 hrs of growth at 37° C., the cells were exposed to vehicle or drug(s). After 10 days incubation with drug(s) or control, the wells were washed with PBS twice, then fixed in 10% acetic acid for 10 min, then stained with crystal violet for 10 min, and finally rinsed with distilled water at room temperature. The colonies (>50 μm likely representing >50 cells) were then visually counted in randomly chosen 1-mm×1-mm grid repeated three times. Statistical analyses of the mean number of colonies were performed by using the Mann-Whitney t test, with significant differences established as P<0.05 as previously published by the laboratory.^16 For the hypoxia conditions, after 24 hr growth in normoxic conditions as above, the vehicle or drug(s) treated cells were exposed to hypoxic environment (1% O2, 5% CO2, 94% N2 at 37° C.) for 5 hrs, followed by re-oxygenation (5% CO2; 37° C.) for the remaining 10 days.

[3] = 22 hr normoxia, 2 hr hypoxia (1% O2), reoxygenation 24 hrs, read-out: IC50 (hypoxia)
[4] = normoxic conditions 48 hours, read-out: IC50 (normoxia)

Structure (SMILES) | IC50 (HepG2 cells [1]; [3]) | IC50 (HepG2 cells [1]; [4]) | cells dead (HepG2 cells [2]) | colonies dead (HepG2 cells [2]) | cells dead compared with controls (HepG2 cells [2]) | colonies alive relative to controls (HepG2 cells [2]) | toxicity in hypoxic versus normoxic exposure (HepG2 cells [1])
Clc1ccc2c(c1)N=C(c1ccccc1)CO2 [Compound 4] | 30 ± 2.4 µM | 78 ± 1.2 µM |  |  |  |  | 
Clc1ccc(C2=Nc3ccc(Cl)cc3OC2)cc1 [Compound B47.2] | 28 ± 1.6 µM | 88 ± 2.4 µM |  |  |  |  | 
O=[N+]([O-])c1ccc2c(c1)N=C(c1ccc(Cl)cc1)CO2 [Compound 7] | 20 ± 1.2 µM | 78 ± 1.4 µM | ~83% | ~28% | ~11% | ~110% | significantly more toxic to hypoxic exposure than to normoxic exposure
c1ccc(C2=Nc3ccccc3OC2)cc1 [Compound 3] | 10.8 ± 1.4 µM | 87 ± 1.3 µM | ~98% | ~71% | ~12% | ~105% | significantly more toxic to hypoxic exposure than to normoxic exposure
Cc1ccc2c(c1)N=C(c1ccc(Cl)cc1)CO2 [Compound B47.4] | 87 ± 1.8 µM | > 600 µM |  |  |  |  | 
